Measured values as given in patent publication US20080199527A1, “Enteric Coated Azithromycin Multiparticulates” (Pfizer Inc., priority 2004, published 2008).

Assay: Reactivity of enteric coating materials with azithromycin: ester formation in 50/50 mixtures, LC/MS
Format: physicochemical
Details: 50/50 (w/w) mixture of azithromycin and material, 50° C. and 20% RH
Experimental: The reactivity of the materials useful for forming enteric coatings listed in Table 1 with azithromycin was determined as follows. […] (CAT), and triacetin, were prepared by adding equal weights of azithromycin and the material to a mortar and mixing with a spatula. […] Azithromycin esters were identified in each of the mixtures by LC/MS detection. […] The sample solutions were then filtered with a 0.45 μm nylon syringe filter. The sample solutions were then analyzed by HPLC using a Hypersil BDS C18 4.6 mm×250 mm (5 μm) HPLC column on a Hewlett Packard HP1100 liquid chromatograph. The mobile phase employed for sample elution was a gradient of isopropyl alcohol and 25 mM ammonium acetate buffer (pH approximately 7) as follows: initial conditions of 50/50 (v/v) isopropyl alcohol/ammonium acetate; the isopropyl alcohol percentage was then increased to 100% over 30 minutes and held at 100% for an additional 15 minutes. The flow rate was 0.80 mL/min. The method used a 75 μL injection volume and a 43° C. column temperature. A Finnigan LCQ Classic mass spectrometer was used for detection. […] Azithromycin ester values were calculated from the MS peak areas based on an external azithromycin standard. […] The results of this analysis are shown below as are the measured rates of ester formation (Re) at 50° C.

CC(=O)OCC(COC(C)=O)OC(C)=O [Triacetin, triacetin]
Re at 50° C. (rate of ester formation): 6.5 × 10^−2 wt %/day | Concentration of Azithromycin Esters (storage time 10 days): 0.65 wt %
